Laboratory results from US9682078B2, “Compositions and methods for tissue engineering and cell based therapies” (University of Virginia Patent Foundation, priority 2011, dated 2017).

Assays:
smooth muscle = details: daily injections; cited from earlier work
[1] = in vivo; cited from earlier work
[2] = in the absence of a carrier protein; cited from earlier work
[3] = system: Lineage1−/Sca1+/c-kit+ (LSK) hematopoietic stem cells; assay: Transwell migration of sorted LSK hematopoietic stem cells toward SDF-1 and S1P; assay type: cell-based, mouse; details: cells pre-treated with compound (15 nM for VPC01091, VPC01211)
Procedure: Whole bone marrow cells were harvested from C57Bl/6 mice tibiae. They were pre-labeled with antibodies against Lineage 1, Sca1, and c-kit and the LSK subset were sorted, serum starved, and plated at equal concentration after pre-treatment with FTY720. Migration toward media, SDF1, and S1P was calculated.
Hematopoietic stem cell migration was also studied (FIG. 17). Lineage1−/Sca1+/c-kit+ (LSK) hematopoietic stem cells were sorted and serum starved for two hours. Cells were pre-treated with 15 nM VPC01211 or not and plated for transwell migration assays toward plain media, SDF-1 or S1P.

[4] = system: whole BMCs on FBMD-1 stromal cells; assay: Cobblestone area-forming cell assay; assay type: cell-based, mouse; details: BMCs pre-treated 30 minutes; FIG. 19
Excerpt: Ordinate—% Positive Wells.

[5] = system: CD45+/CD11b+/Ly6Clow/CX3CR1high anti-inflammatory monocytes (AM); assay: Transwell migration of sorted anti-inflammatory monocytes after FTY720 pre-treatment; assay type: cell-based, mouse; details: FIG. 6A
Excerpt: (§1) CD45^+/CD11b^+/Ly6C^low/CX3CR1^high anti-inflammatory monocytes (AM) and CD45^+/CD11b^+/Ly6C^high/CX3CR1^low inflammatory monocytes (IM) (FIG. 6C) were sorted from mouse marrow. […] In vivo, in tissue from the murine dorsal skinfold window chamber, the recruitment of IMs to dorsal tissue was attenuated with local FTY720 application from PLAGA films (FIG. 6D). Cells that are CD45^+/CD11b^+/Ly6C^high/CX3CR1^low/CD105^+ and have a decreasing expression of Sca1 (a progenitor cell marker) are consistent with endothelial progenitor derived endothelial cells (EPC-ECs). […] Local FTY720 stimulation attenuates the infiltration of inflammatory cells and recruits regenerative stem cells. (See FIGS. 3-6).

[6] = system: CD45+/CD11b+/Ly6Chigh/CX3CR1low inflammatory monocytes (IM); assay: Transwell migration of sorted inflammatory monocytes after FTY720 pre-treatment; assay type: cell-based, mouse; details: FIG. 6B
Excerpt: as §1

dorsal tissue = assay: Murine dorsal skinfold window chamber with PLAGA films, flow cytometry of dorsal tissue; assay type: in vivo, mouse; details: local application from PLAGA films
Procedure: (§2) 1 mm poly(lactic-co-glycolic acid) PLAGA films loaded with S1P receptor compounds are placed within the window chamber as shown. Repeated measurements of the same vessel networks are recorded and quantified over a 7-day time course using intravital microscopy. (FIG. 3).
(§3) Backpacks were implanted with PLAGA films and collagenase was used to digest dorsal tissue directly around the implants after 3 days to create single cell suspensions. Flow cytometry was used to assess cellular content. A feeder artery to the spinotrapezius muscle was ligated, creating an ischemic environment, and confocal microscopy on whole-mounted tissue was used to assess CX3CR1 expression in the muscle (FIG. 5).

[7] = system: ischemic spinotrapezius muscle; assay: Arterial ligation of spinotrapezius muscle with PLAGA film implantation, confocal microscopy; assay type: in vivo, mouse; details: FIG. 7
Excerpt: as §3

dorsal microvasculature [8] = assay: Murine dorsal skinfold window chamber, intravital microscopy of microvascular remodeling; assay type: in vivo, mouse; details: S1P3 selectively antagonized on marrow-derived cells (BM S1P3−/−); 3 days post-implantation; FIG. 8
Procedure: as §2

dorsal microvasculature [9] = details: sustained release from 50:50 PLAGA films (1:200 wt/wt); cited from earlier work
[10] = system: critical size calvarial bone defects; details: 3D PLAGA scaffolds delivering FTY720; cited from earlier work
bone marrow cells = assay: Transwell migration of bone marrow cells toward SDF-1; assay type: cell-based, rat; details: pre-treated 10 ng/ml 30 minutes
Procedure: Bone marrow cells were collected from the tibia of Sprague Daley rats (Charles River), scrum starved for 2 hours, and the cell suspension at 2×10^6 cells/ml was pre-treated with serum-free medium, or 10 ng/ml FTY720-P (Cayman) for 30 minutes and then were re-suspended in serum-free DMEM (Invitrogen). 100 μl of the pre-treated cell suspension was added to the top of 5 μm transwell inserts (Costar) in a 24-well plate. The bottom of the wells contained 600 μl of serum-free DMEM or 12.5 nM SDF-1 (ProspecBio). The cells were incubated at 37° C. for 4 hours, and then the number of cells at the top and the bottom of the transwells were counted using an automatic cell counter. The cells that migrated toward SDF-1 after pre-treatment with FTY720-P were collected from the bottom of the transwells and treated with monoclonal antibodies to CD45, CD11b and CD90 prior to flow analysis. Flow cytometry was performed according to standard procedures and was analyzed on a 9 color CyAn flow cytometer.

5 mm cranial defects = assay: Rat cranial critical size bone defect, microCT and flow cytometry; assay type: in vivo
Procedure: 5 mm cranial defects were made in 36 nine weeks old Sprague Daley rats, which were divided into 4 groups (n=9). The rats were treated with a systemic dose of 1 mpk VPC01091, FTY720 coated semi-circular allograft, FTY720 coated semi-circular allograft+a systemic dose of 1 mpk VPC01091 or left untreated. VPC01091 was given the day after surgery and 3 weeks post-surgery. Hemavet (Drew Scientifics) was used to measure the concentrations of blood cells at days 0, week 1 and week 2 (n=6) (data not shown). The amount of bone regeneration was measured bi-weekly with microCT imaging (n=3-9). Flow cytometry was performed according to standard procedures on the tissue harvested from the defect sites at week 3 (n=3), and from peripheral blood at week 6 (n=3). Monoclonal antibodies (Invitrogen, Abeam) for rat CD45, CD11b, CD54, CD90 were used in both cases. Mason's Trichrome and H&E staining were done for done for all groups (n=3).

S1P1 receptor = S1P1 receptor (Homo sapiens, UniProt P21453); details: cited from earlier work
S1P3 receptor = S1P3 receptor (Homo sapiens, UniProt Q99500); details: cited from earlier work
donor (GFP+) cells = assay: Bone marrow transplant after lethal irradiation with equal number of mobilized cells; details: two-week chimerism after competitive BMT with equal numbers of mobilized cells; FIG. 10D
Procedure: WT mice were irradiated & reconstituted with mobilized peripheral blood cells from GFP+ mice. After varying amounts of time, blood was collected via the retro-orbital sinus and bone marrow was harvested to assess chimerism over time.
100 μL blood was plated on methocult stem cell differentiation medium and after 6 days colony forming units were quantified. […] Cells tested included—Host cells, PB donor cells and BM donor cells were tested. Treatments included—AMD cells, A+V cells, AMD Sca1+, A+V Sca1+, AMD CD45+, A+V CD45+, AMD CD11b+, and A+V CD11b+.

[11] = PLAGA film, ligated feeder artery

Sequence of S1P1 receptor (P21453 whole entry): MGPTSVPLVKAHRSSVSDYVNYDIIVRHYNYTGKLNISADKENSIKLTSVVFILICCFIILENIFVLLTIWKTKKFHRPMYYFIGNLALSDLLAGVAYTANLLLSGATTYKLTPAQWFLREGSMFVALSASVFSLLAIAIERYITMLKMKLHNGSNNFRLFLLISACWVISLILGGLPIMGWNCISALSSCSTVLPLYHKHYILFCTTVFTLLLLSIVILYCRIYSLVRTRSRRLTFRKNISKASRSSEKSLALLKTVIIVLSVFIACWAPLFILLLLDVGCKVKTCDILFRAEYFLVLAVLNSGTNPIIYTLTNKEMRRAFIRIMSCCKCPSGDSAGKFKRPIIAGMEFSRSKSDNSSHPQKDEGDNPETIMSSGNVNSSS
Sequence of S1P3 receptor (Q99500 whole entry): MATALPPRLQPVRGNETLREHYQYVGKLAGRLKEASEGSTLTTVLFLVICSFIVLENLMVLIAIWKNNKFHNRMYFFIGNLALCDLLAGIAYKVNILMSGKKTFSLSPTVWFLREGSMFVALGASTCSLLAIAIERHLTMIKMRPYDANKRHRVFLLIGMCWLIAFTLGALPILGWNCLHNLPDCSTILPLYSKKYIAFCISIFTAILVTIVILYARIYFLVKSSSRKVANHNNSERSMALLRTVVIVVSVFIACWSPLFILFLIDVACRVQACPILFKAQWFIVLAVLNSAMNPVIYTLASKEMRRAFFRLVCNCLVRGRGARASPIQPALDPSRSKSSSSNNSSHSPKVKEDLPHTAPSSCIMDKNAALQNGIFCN

## CCCCCCCCc1cccc(NC(=O)[C@H](N)CCP(=O)(O)O)c1 [VPC44116]
Smooth muscle
  smooth muscle proliferation and migration: significantly decreased

## CCCCCCCCCCCCC/C=C/[C@@H](O)[C@@H](N)COP(=O)(O)O [S1P, Sphingosine 1-phosphate]
[1]
  half-life in blood: less than 1 hour
[2]
  solubility in aqueous solutions: insoluble

## CCCCCCCCc1ccc(C2CCC(N)(COP(=O)(O)O)C2)cc1 (stereo not shown) [VPC01211]
[3]
  HSC migration / homing toward S1P: did not affect
  HSC migration / homing toward SDF-1: abrogated
[4]
  adhesion / engraftment on bone marrow stromal cell layer: less engraftment than AMD3100

## CCCCCCCCc1ccc(CCC(N)(CO)CO)cc1 [FTY720, 2-amino-2-[2-(4-octylphenyl)ethyl]propane 1,3-diol]
[5]
  migration of AMs towards SDF-1: increased
[6]
  migration of IMs towards S1P: decreased
  migration of IMs towards SDF-1: decreased
Dorsal tissue
  EPC-ECs in dorsal tissue: increased
Dorsal tissue; FIG. 6D
  recruitment of IMs to dorsal tissue: attenuated
[7]; CX3CR1-eGFP mice
  recruitment of vessel-associated CX3CR1+ cells: recruitment of vessel-associated CX3CR1+ cells
[7]; [11]
  remodeling in ischemic muscle: induces remodeling in ischemic muscle
  tortuosity of vessels: promotes tortuosity of vessels
Dorsal microvasculature [8]
  FTY720-induced microvascular remodeling: impaired
[3]
  HSC migration / homing toward S1P: abolishes
  HSC migration / homing toward SDF-1: improves
Dorsal microvasculature [9]
  arteriole formation and enlargement: promotes formation of new arterioles and structural enlargement of existing arterioles
[1]
  half-life: approximately 7 days
[10]
  osseous tissue ingrowth: significantly increases
  proportion of mature smooth muscle cell-invested microvessels within the bony defect: significantly increases

## CCCCCCCCc1ccc(CC[C@](N)(CO)COP(=O)(O)O)cc1 [FTY720-P]
Bone marrow cells; 12.5 nM SDF-1, 4 hours, FIG. 11E
  total number of cells migrating toward SDF-1: significantly increased
Bone marrow cells; FIG. 11F
  percentage of CD90+; CD45−/CD11b− cells migrating toward SDF-1: higher percentage

## CCCCCCCCc1ccc(C2CCC(N)(CO)C2)cc1 (stereo not shown) [VPC01091]
[3]
  HSC migration / homing toward S1P: sensitized
  HSC migration / homing toward SDF-1: desensitized
5 mm cranial defects; systemic 1 mpk, day after surgery and 3 weeks post-surgery, microCT, FIG. 11
  bone regeneration compared to the empty defect controls: substantial bi-weekly increase
5 mm cranial defects; week 3, FIG. 12a
  percentage of CD54 and CD90 positive cells in the defect region: increase
5 mm cranial defects; week 6, FIG. 12b
  percentage of CD54 and CD90 positive cells in the blood: increase
S1P1 receptor
  activity at S1P1 receptor: agonist
S1P3 receptor
  activity at S1P3 receptor: antagonist
Donor (GFP+) cells
  engraftment and repopulation efficiency in vivo: does not impair
